Settings: Fluid (supercritical or subcritical phases), Coaxial cylinder method

CCCCCC [hexane]
thermal conductivity [W/m/K]
Settings	525.42 K	553 K
1000 kPa	–	0.04354
1120 kPa	–	0.0439
1400 kPa	–	0.04407
1500 kPa	–	0.04431
1600 kPa	–	0.04443
1700 kPa	–	0.04455
1800 kPa	–	0.0448
1900 kPa	–	0.04493
2000 kPa	–	0.04518
2100 kPa	–	0.04543
2200 kPa	–	0.04556
2300 kPa	–	0.04582
2400 kPa	–	0.04608
2500 kPa	0.04372	0.04635
2600 kPa	–	0.04661
2700 kPa	–	0.04688
2740 kPa	0.04444	–
2800 kPa	–	0.04716
2850 kPa	0.04444	–
2900 kPa	–	0.04743
3000 kPa	0.04701	0.04743
3050 kPa	0.04756	–
3100 kPa	0.04855	0.04814
3150 kPa	0.04855	–
3200 kPa	0.04958	0.04857
3250 kPa	0.05034	–
3300 kPa	0.05065	0.04897
3350 kPa	0.05177	–
3400 kPa	0.05311	0.04942
3450 kPa	0.0538	–
3500 kPa	0.05526	0.05003
3550 kPa	0.05659	–
3600 kPa	0.05777	0.0505
3650 kPa	0.059	–
3700 kPa	0.0603	0.05127
3750 kPa	0.06164	–
3800 kPa	0.06281	0.05191
3850 kPa	0.06378	–
3900 kPa	0.06477	0.05255
4000 kPa	0.06632	0.05325
4100 kPa	0.06685	0.05395
4200 kPa	0.06685	0.05468
4268 kPa	–	0.05523
4300 kPa	0.06685	–
4390 kPa	–	0.05618
4400 kPa	0.06684	–
4500 kPa	0.06684	–
4600 kPa	0.06684	–
4700 kPa	0.06683	0.0589
4800 kPa	0.06683	0.05987
4900 kPa	0.06848	0.06075
5000 kPa	0.06848	0.06166
5100 kPa	0.06848	–
5200 kPa	0.06848	–
5300 kPa	0.07141	0.06418
5400 kPa	0.07172	–
5500 kPa	0.07172	0.06559
5600 kPa	0.07172	–
5700 kPa	0.07203	–
5800 kPa	0.07203	0.06746
5900 kPa	0.07218	–
6000 kPa	0.07233	0.06843
6100 kPa	0.07249	–
6200 kPa	0.07249	–
6300 kPa	0.07265	0.06974
6400 kPa	0.07281	–
6500 kPa	0.0728	0.07019
6600 kPa	0.07296	–
6700 kPa	0.07312	–
6800 kPa	0.07328	0.07109
6900 kPa	0.07348	–
7000 kPa	0.07361	0.0717
7100 kPa	0.07377	–
7200 kPa	0.07393	0.07202
7317 kPa	0.0741	–
7328 kPa	0.07412	–
7405 kPa	0.07412	–
7500 kPa	0.07428	0.07265
7600 kPa	0.07445	–
7700 kPa	0.07462	–
7800 kPa	0.07478	0.07329
7900 kPa	0.07482	–
8000 kPa	0.07495	0.07361
8100 kPa	0.07512	–
8200 kPa	0.07529	–
8300 kPa	0.07546	0.07427
8400 kPa	0.07546	–
8500 kPa	0.07546	0.07427
8600 kPa	0.07563	–
8700 kPa	0.07583	–
8800 kPa	0.07597	0.07545
8900 kPa	0.07614	–
9000 kPa	0.07632	0.07545
9100 kPa	0.07632	–
9200 kPa	0.07649	–
9250 kPa	–	0.07562
9300 kPa	0.07667	–
9400 kPa	0.07674	–
9500 kPa	0.07684	0.07582
9600 kPa	0.07701	–
9700 kPa	0.07712	–
9800 kPa	0.07726	0.07617
9900 kPa	0.07737	–
10000 kPa	–	0.07635
10150 kPa	0.07772	–
10200 kPa	0.07779	–
10300 kPa	0.07793	0.07652
10400 kPa	0.07804	–
10500 kPa	0.07815	0.07688
10600 kPa	0.07833	–
10800 kPa	0.07855	0.07716
11000 kPa	–	0.0773
11500 kPa	0.07941	0.07777
11600 kPa	0.07956	–
11800 kPa	0.07975	–
12000 kPa	0.07994	0.07832
12300 kPa	0.08032	0.07869
12500 kPa	0.08048	–
12870 kPa	–	0.07914
13500 kPa	–	0.07983
14000 kPa	–	0.08021
14500 kPa	–	0.08068
15000 kPa	–	0.08119
